Measurements: PubChem BioAssay AID493211 (Johns Hopkins Ion Channel Center, 2011)
pEC50: −log10 of the molar value. The source made the active and inactive calls.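 How the source made its calls: active means switches on the TRPC4 calcium channel at some tested dose and gives a concentration response curve; inactive means the rest.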

These compounds were tested against TRPC4 (mouse), transient receptor potential cation channel C4 (assay: agonist potency at mouse TRPC4 – cell-based, HEK293 TRPC4/mu-opioid, Fluo-4 calcium flux, dose response (AID 493211)). Conditions: HEK293 TRPC4/mu-opioid cells, Fluo-4 calcium fluorescence ratio.

| Structure (SMILES) | pEC50 |
| --- | --- |
| CN1CCN(c2ccc([N+](=O)[O-])c3cccnc23)CC1 | 8.04 |

Same assay, conditions: HEK293 TRPC4/mu-opioid cells, Fluo-4 calcium fluorescence ratio; at 20 µM (top of the series)

| Structure (SMILES) | fluorescence ratio, percent of baseline (100 = none) |
| --- | --- |
| CCOC(=O)NC1CCN(c2ccc([N+](=O)[O-])c3cccnc23)CC1 | inactive |
| O=[N+]([O-])c1ccc(N2CCC3(C=Cc4ccccc43)CC2)c2ncccc12 | inactive |
| N#Cc1ccccc1N1CCN(c2ccc([N+](=O)[O-])c3cccnc23)CC1 | inactive |
| CCN(CC)c1ccc([N+](=O)[O-])c2cccnc12 | inactive |
| COC(=O)C1CCCN(c2ccc([N+](=O)[O-])c3cccnc23)C1 (stereo not drawn) | inactive |
| O=[N+]([O-])c1ccc(N2CCN(c3ncccn3)CC2)c2ncccc12 | inactive |
| COc1ccccc1N1CCN(c2ccc([N+](=O)[O-])c3cccnc23)CC1 | inactive |
| C[C@@H]1CN(c2ccc([N+](=O)[O-])c3cccnc23)[C@@H](C)CN1 | inactive |
| O=[N+]([O-])c1ccc(N2CCOCC2)c2ncccc12 | inactive |
| O=[N+]([O-])c1ccc(N2CCN(c3ccncc3)CC2)c2ncccc12 | inactive |
| O=C1CC(Nc2ccc([N+](=O)[O-])c3cccnc23)CN1 (stereo not drawn) | inactive |
| O=[N+]([O-])c1ccc(N2CCN(c3ccc(F)cc3F)CC2)c2ncccc12 | inactive |
| O=C1NCCC1Nc1ccc([N+](=O)[O-])c2cccnc12 (stereo not drawn) | inactive |
| O=[N+]([O-])c1ccc(N2CCC2)c2ncccc12 | inactive |
| C[C@H]1CCCN1c1ccc([N+](=O)[O-])c2cccnc12 | inactive |
| CC1CC(C)CN(c2ccc([N+](=O)[O-])c3cccnc23)C1 (stereo not drawn) | inactive |
| O=[N+]([O-])c1ccc(N2CCC3(CCc4ccccc43)CC2)c2ncccc12 | inactive |
| N#Cc1ccccc1C1CCN(c2ccc([N+](=O)[O-])c3cccnc23)CC1 | inactive |
| O=[N+]([O-])c1ccc(N2CCOc3ccccc32)c2ncccc12 | inactive |
| COc1ccc(N2CCN(c3ccc([N+](=O)[O-])c4cccnc34)CC2)cc1 | inactive |
| CC(C)(C)OC(=O)N1CCN(c2ccc([N+](=O)[O-])c3cccnc23)CC1 | inactive |
| O=[N+]([O-])c1ccc(N2CCN(c3ccccn3)CC2)c2ncccc12 | inactive |
